Assay results reported in US20150105252A1, “SUBSTITUTED PYRAZOLES AS HERBICIDES” (E I DU PONT DE NEMOURS AND COMPANY, priority 2013, published 2015).

Columns and labels:
buckwheat, wild [1] = test: Test D postemergence; assay type: in vivo, Polygonum convolvulus; details: scale 0 to 100
Outline: (§1)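 Pre: sown in silt loam, sprayed at once. Post: grown in peat-moss/vermiculite mix, sprayed at 1–4 leaves (2–18 cm). Formulation: non-phytotoxic solvent + surfactant. Read-out: visual 0–100 vs controls, 14–21 d.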

buckwheat, wild [2] = test: Test D preemergence; assay type: in vivo, Polygonum convolvulus; details: for Plant response rating, Buckwheat, Wild: Preemergence, scale 0 to 100
Outline: as §1

barley, winter [3] = test: Test D preemergence; assay type: in vivo, Hordeum vulgare; details: for Plant response rating, Barley, Winter: Preemergence, scale 0 to 100
Outline: as §1

barley, spring [4] = test: Test D preemergence; assay type: in vivo, Hordeum vulgare; details: for Plant response rating, Barley, Spring: Preemergence, scale 0 to 100
Outline: as §1

barley, winter [5] = test: Test D postemergence; assay type: in vivo, Hordeum vulgare; details: scale 0 to 100
Outline: as §1

barley, spring [6] = test: Test D postemergence; assay type: in vivo, Hordeum vulgare; details: scale 0 to 100
Outline: as §1

foxtail, green [7] = test: Test D preemergence; assay type: in vivo, Setaria viridis; details: for Plant response rating, Foxtail, Green: Preemergence, scale 0 to 100
Outline: as §1

canarygrass = test: Test D preemergence; assay type: in vivo, Phalaris minor; details: for Plant response rating, Canarygrass: Preemergence, scale 0 to 100
Outline: as §1

foxtail, green [8] = test: Test D postemergence; assay type: in vivo, Setaria viridis; details: scale 0 to 100
Outline: as §1

kochia = test: Test D postemergence; assay type: in vivo, Kochia scoparia; details: scale 0 to 100
Outline: as §1

mustard, wild = test: Test D preemergence; assay type: in vivo, Sinapis arvensis; details: for Plant response rating, Mustard, Wild: Preemergence, scale 0 to 100
Outline: as §1

chickweed = test: Test D preemergence; assay type: in vivo, Stellaria media; details: for Plant response rating, Chickweed: Preemergence, scale 0 to 100
Outline: as §1

pigweed = test: Test D postemergence; assay type: in vivo, Amaranthus retroflexus; details: scale 0 to 100
Outline: as §1

field violet = test: Test D preemergence; assay type: in vivo, Viola arvensis; details: for Plant response rating, Field Violet: Preemergence, scale 0 to 100
Outline: as §1

windgrass = test: Test D preemergence; assay type: in vivo, Apera spica-venti; details: for Plant response rating, Windgrass: Preemergence, scale 0 to 100
Outline: as §1

deadnettle = test: Test D preemergence; assay type: in vivo, Lamium amplexicaule; details: for Plant response rating, Deadnettle: Preemergence, scale 0 to 100
Outline: as §1

wheat, spring = test: Test D preemergence; assay type: in vivo, Triticum aestivum; details: for Plant response rating, Wheat, Spring: Preemergence, scale 0 to 100
Outline: as §1

wheat, winter = test: Test D preemergence; assay type: in vivo, Triticum aestivum; details: for Plant response rating, Wheat, Winter: Preemergence, scale 0 to 100
Outline: as §1

field poppy = test: Test D preemergence; assay type: in vivo, Papaver rhoeas; details: for Plant response rating, Field Poppy: Preemergence, scale 0 to 100
Outline: as §1

blackgrass = test: Test D postemergence; assay type: in vivo, Alopecurus myosuroides; details: scale 0 to 100
Outline: as §1

[9] = 16 g ai/ha, taken as preemergence

O=C(NC1CC1)c1cc(CCF)n(Cc2ccnc(C(F)(F)F)c2)n1 [Compound 176]
Plant response rating, Buckwheat, Wild (buckwheat, wild [1]; Postemergence, 16 g ai/ha): 30 | Buckwheat, Wild plant response rating (buckwheat, wild [1]; Postemergence, 31 g ai/ha): 55 | Buckwheat, Wild plant response rating (buckwheat, wild [1]; Postemergence, 125 g ai/ha): 65 | Buckwheat, Wild plant response rating (buckwheat, wild [1]; postemergence, 62 g ai/ha): 55 | Plant response rating (scale 0 to 100), Buckwheat, Wild (buckwheat, wild [2]; [9]): 0 | Plant response rating, Buckwheat, Wild (buckwheat, wild [2]; 31 g ai/ha): 15 | Plant response rating, Buckwheat, Wild (buckwheat, wild [2]; 62 g ai/ha): 95 | Plant response rating, Buckwheat, Wild (buckwheat, wild [2]; 125 g ai/ha): 85 | Plant response rating (scale 0 to 100), Barley, Winter (barley, winter [3]; [9]): 0 | Plant response rating, Barley, Winter (barley, winter [3]; 31 g ai/ha): 0 | Plant response rating, Barley, Winter (barley, winter [3]; 62 g ai/ha): 0 | Plant response rating, Barley, Winter (barley, winter [3]; 125 g ai/ha): 0 | Plant response rating (scale 0 to 100), Barley, Spring (barley, spring [4]; 16 g ai/ha, taken as preemergence, 0 = no effect, 100 = complete control): 0 | Plant response rating, Barley, Spring (barley, spring [4]; 31 g ai/ha): 0 | Plant response rating, Barley, Spring (barley, spring [4]; 62 g ai/ha): 0 | Plant response rating, Barley, Spring (barley, spring [4]; 125 g ai/ha): 0 | Barley, Winter plant response rating (barley, winter [5]; Postemergence, 16 g ai/ha): 0 | Barley, Winter plant response rating (barley, winter [5]; Postemergence, 31 g ai/ha): 10 | Barley, Winter plant response rating (barley, winter [5]; Postemergence, 125 g ai/ha): 20 | Barley, Winter plant response rating (barley, winter [5]; postemergence, 62 g ai/ha): 10 | Barley, Spring plant response rating (barley, spring [6]; Postemergence, 16 g ai/ha): 0 | Barley, Spring plant response rating (barley, spring [6]; Postemergence, 31 g ai/ha): 10 | Barley, Spring plant response rating (barley, spring [6]; Postemergence, 125 g ai/ha): 15 | Barley, Spring plant response rating (barley, spring [6]; postemergence, 62 g ai/ha): 10 | Plant response rating (scale 0 to 100), Foxtail, Green (foxtail, green [7]; [9]): 0 | Plant response rating, Foxtail, Green (foxtail, green [7]; 62 g ai/ha): 15 | Plant response rating, Foxtail, Green (foxtail, green [7]; 125 g ai/ha): 40 | Plant response rating (scale 0 to 100), Canarygrass (canarygrass; [9]): 0 | Plant response rating, Canarygrass (canarygrass; 31 g ai/ha): 5 | Plant response rating, Canarygrass (canarygrass; 62 g ai/ha): 25 | Plant response rating, Canarygrass (canarygrass; 125 g ai/ha): 35 | Plant response rating, Foxtail, Green (foxtail, green [8]; Postemergence, 16 g ai/ha): 10 | Foxtail, Green plant response rating (foxtail, green [8]; Postemergence, 31 g ai/ha): 20 | Foxtail, Green plant response rating (foxtail, green [8]; Postemergence, 125 g ai/ha): 35 | Foxtail, Green plant response rating (foxtail, green [8]; postemergence, 62 g ai/ha): 20 | Plant response rating, Kochia (kochia; Postemergence, 16 g ai/ha): 30 | Kochia plant response rating (kochia; Postemergence, 31 g ai/ha): 65 | Kochia plant response rating (kochia; Postemergence, 125 g ai/ha): 70 | Kochia plant response rating (kochia; postemergence, 62 g ai/ha): 65 | Plant response rating (scale 0 to 100), Mustard, Wild (mustard, wild; [9]): 10 | Plant response rating, Mustard, Wild (mustard, wild; 62 g ai/ha): 90 | Plant response rating, Mustard, Wild (mustard, wild; 125 g ai/ha): 100 | Plant response rating (scale 0 to 100), Chickweed (chickweed; [9]): 10 | Plant response rating, Chickweed (chickweed; 31 g ai/ha): 50 | Plant response rating, Chickweed (chickweed; 62 g ai/ha): 85 | Plant response rating, Chickweed (chickweed; 125 g ai/ha): 100 | Plant response rating, Pigweed (pigweed; Postemergence, 16 g ai/ha): 55 | Pigweed plant response rating (pigweed; Postemergence, 31 g ai/ha): 65 | Pigweed plant response rating (pigweed; Postemergence, 125 g ai/ha): 70 | Pigweed plant response rating (pigweed; postemergence, 62 g ai/ha): 65 | Plant response rating (scale 0 to 100), Field Violet (field violet; [9]): 0 | Plant response rating, Field Violet (field violet; 62 g ai/ha): 50 | Plant response rating, Field Violet (field violet; 125 g ai/ha): 65 | Plant response rating (scale 0 to 100), Windgrass (windgrass; [9]): 0 | Plant response rating, Windgrass (windgrass; 62 g ai/ha): 10 | Plant response rating, Windgrass (windgrass; 125 g ai/ha): 40 | Plant response rating (scale 0 to 100), Deadnettle (deadnettle; [9]): 0 | Plant response rating, Deadnettle (deadnettle; 31 g ai/ha): 20 | Plant response rating, Deadnettle (deadnettle; 62 g ai/ha): 80 | Plant response rating, Deadnettle (deadnettle; 125 g ai/ha): 100 | Plant response rating (scale 0 to 100), Wheat, Spring (wheat, spring; [9]): 0 | Plant response rating, Wheat, Spring (wheat, spring; 62 g ai/ha): 0 | Plant response rating, Wheat, Spring (wheat, spring; 125 g ai/ha): 5 | Plant response rating (scale 0 to 100), Wheat, Winter (wheat, winter; [9]): 0 | Plant response rating, Wheat, Winter (wheat, winter; 62 g ai/ha): 0 | Plant response rating, Wheat, Winter (wheat, winter; 125 g ai/ha): 5 | Plant response rating (scale 0 to 100), Field Poppy (field poppy; [9]): 10 | Plant response rating, Field Poppy (field poppy; 62 g ai/ha): 55 | Plant response rating, Field Poppy (field poppy; 125 g ai/ha): 100 | Plant response rating, Blackgrass (blackgrass; Postemergence, 16 g ai/ha): 5 | Blackgrass plant response rating (blackgrass; Postemergence, 31 g ai/ha): 15 | Blackgrass plant response rating (blackgrass; Postemergence, 125 g ai/ha): 20 | Blackgrass plant response rating (blackgrass; postemergence, 62 g ai/ha): 15
